In patent publication US9624167B2, “N-(4-hydroxy-4-methyl-cyclohexyl)-4-phenyl-benzenesulfonamides and N-(4-hydroxy-4-methyl-cyclohexyl)-4-(2-pyridyl)benzenesulfonamides and their therapeutic use” (PIMCO 2664 LIMITED, priority 2013, dated 2017):
Like-named read-outs stand apart in the source and are kept apart here.

What was measured:
[1] = Rodent pharmacokinetics study; type: in vivo, Sprague-Dawley rats; details: rat; for half-life: male, Sprague-Dawley, plasma, elimination phase half-life; for i.v. AUC: intravenous 1 mg/kg; for p.o. AUC: oral 5 mg/kg in 0.5% CMC/0.1% Tween-80 (HMC-C-01-A in 2% dimethylacetamide/20% hydroxypropyl-β-cyclodextrin); for Bioavail, F: tentative oral bioavailability, F=AUC(p.o.)×Dose(i.v.)/AUC(i.v.)×Dose(p.o.)
Protocol: Absorption and metabolic stability were studied using an in vivo pharmacokinetics assay.
Three male Sprague-Dawley rats, aged 8-12 weeks, were dosed with test compounds administered either orally or intravenously (dose level of 1 mg/kg body weight intravenous or 5 mg/kg body weight orally). Test compounds were formulated in 0.5% carboxymethylcellulose (CMC)/0.1% Tween-80 for administration via the oral route, or in 5% DMSO/10% solutol in saline for administration via the intravenous route. For compound HMC-C-01-A the oral administration was formulated in 2% dimethylacetamide/20% hydroxypropyl-β-cyclodextrin in water. Animals were given free access to food throughout the study except for fasting overnight and until 2 hours post dose on the day of dosing.
Blood samples were taken from the retro-orbital plexus at the following time points and placed in microtubes containing 20% K2EDTA solution:
Oral Dosing: predose; 0.25, 0.5, 1, 2, 4, 6, 8, and 24 hours post dose.
Intravenous Dosing: predose; 0.08, 0.25, 0.5, 1, 2, 4, 8, and 24 hours post dose.
Blood samples were centrifuged to obtain plasma, which was transferred to a separate container and frozen at −20° C.
For analysis, samples were thawed at room temperature and prepared by protein precipitation with acetonitrile spiked with internal standard (500 ng/mL glipizide) in the ratio 1:4 with plasma. The samples were then vortexed for 5 minutes and centrifuged for 10 minutes at 20,600×g at 4° C. 100 μL of the supernatant was collected for analysis. The standard samples were prepared similarly, after spiking blank rat plasma samples with 10 μL of analyte.
The pharmacokinetic parameters for the test compounds were calculated by Phoenix WinNonlin version 6.3 (Pharsight Corp, CA) using standard non-compartmental methods. Peak plasma concentrations (Cmax) and time of the peak plasma concentration (Tmax) were the observed values. The area under the plasma concentration-time curve (AUC) was determined by use of the linear trapezoidal rule up to the last measurable concentration (AUClast) and thereafter by extrapolation of the terminal elimination phase to infinity (AUCinf). The terminal elimination rate constant (kel) was determined by regression analysis of the linear terminal portion of the log plasma concentration-time curve. The elimination phase half-life (t1/2) was calculated as 0.693/kel.

[2] = test system: IL-6 release from LPS-stimulated Thp1 macrophages; test: Thp1 Macrophage IL-6 Release Assay; type: cell-based; details: Homo sapiens
Source text: Anti-inflammatory effects were further characterised by assessing the production of interleukin-6 (IL-6) by human Thp-1 derived macrophages stimulated with a pro-inflammatory stimulus bacterial lipopolysaccharide (LPS). LPS acts with a cell-surface receptor, Toll-like receptor-4 to activate the NFκB and IRF signalling pathways to produce IL-6. The reduction of IL—in this stimulated assay is indicative of anti-inflammatory effects with utility in the treatment of conditions in which IL-6 production is aberrant.
In vitro potency of test compounds in human cells was determined by incubation with Thp1 macrophages and subsequent stimulation with an inflammatory stimulus (bacterial lipopolysaccharide (LPS)) followed by measurement of cellular interleukin-6 (IL-6) release.
Thp1 cells were plated at a concentration of 1×10^5 cells/well or 1.7×10^5 cells/well in 500 μL or 150 μL RPMI complete media containing 1% penicillin-streptomycin and 10% heat inactivated foetal bovine serum in 24-well plates or 96-well plates, respectively and allowed to adhere overnight. The following day, the cells were stimulated with phorbol myristic acid (PMA) at a final concentration of 100 nM (24-well plates) or 200 nM (96-well plates) to induce differentiation and maintained for up to 8 days with a medium change at 5 days if cells were cultured to 8 days. Test compounds were prepared as […] solutions in DMSO and then serially diluted in DMSO prior to dilution in culture medium.
The diluted compounds were added to the cultures 1 hour prior to stimulation with 100 ng/mL LPS. Following a 16 or 18 hour incubation at 37° C./5% CO2, the cell culture medium was collected and assayed for human IL-6 levels using the human IL-6 duo-set ELISA kit (R&D Systems). The average results for each test compound (n=3) were expressed as a percent (%) of the average control value. The average values across the concentrations tested were then plotted and the IC50 for the inhibition of IL-6 was calculated by fitting the data to a 4-parameter IC50 equation using software from Grafit version 6.0.12 (Erithacus Software Ltd., by Dr Robin Leatherbarrow) or GraphPad Prism version 5.04 for Windows (GraphPad Software, La Jolla, Calif., USA, www.qraphpad.com). Each experiment was repeated twice and the data are presented as the mean IC50 from both experiments.

[3] = THP-1, 1 × 10^5 cells/well, 24-well plates, 8 days, 6 point curve, IL6 measured 16 hours after LPS, read-out: IC50 (1)
[4] = THP-1, 1.7 × 10^5 cells/well, 96-well plates, 3 days, 9 point curve, IL6 measured 18 hours after LPS, read-out: IC50 (2)

Structure (SMILES)	half-life [1] [h]	i.v. AUC [1] [ng·min/mL]	p.o. AUC [1] [ng·h/mL]	Bioavail, F [1] [%]	IC50 [2, 3] [nM]	IC50 [2, 4] [nM]
C[C@]1(O)CC[C@H](NS(=O)(=O)c2ccc(-c3ncc(F)cc3F)c(F)c2)CC1 [HMC-N-01-A, 4-(3,5-Difluoropyridin-2-yl)-3-fluoro-N-((1r,4r)-4-hydroxy-4-methylcyclohexyl)benzenesulfonamide]	13.4	740	23.5	64	130	280
C[C@]1(O)CC[C@@H](NS(=O)(=O)c2ccc(-c3ccc(F)cc3F)c(F)c2)CC1 [HMC-C-04-B, 2,2′,4′-Trifluoro-N-((1s,4s)-4-hydroxy-4-methylcyclohexyl)-[1,1′-biphenyl]-4-sulfonamide]	5.5		156	59		30
C[C@]1(O)CC[C@H](NS(=O)(=O)c2ccc(-c3c(F)cc(F)cc3F)cc2)CC1 [HMC-C-03-A, 2′,4′,6′-Trifluoro-N-((1r,4r)-4-hydroxy-4-methylcyclohexyl)biphenyl-4-sulfonamide]	2.4	1427	65.2	55	4	50
C[C@]1(O)CC[C@@H](NS(=O)(=O)c2ccc(-c3ncc(F)cc3F)c(F)c2)CC1 [HMC-N-01-B, 4-(3,5-Difluoropyridin-2-yl)-3-fluoro-N-((1s,4s)-4-hydroxy-4-methylcyclohexyl)benzenesulfonamide]	9.1	2824	141	60		30
C[C@]1(O)CC[C@H](NS(=O)(=O)c2ccc(-c3ncc(Cl)cc3Cl)c(F)c2)CC1 [HMC-N-04-A, 4-(3,5-Dichloropyridin-2-yl)-3-fluoro-N-((1r,4r)-4-hydroxy-4-methylcyclohexyl)benzenesulfonamide]	2.9	1279	70	66		
Cc1cc(S(=O)(=O)NC2CCC(C)(O)CC2)ccc1-c1ccc(F)cc1F (single isomer, unassigned) [REF001, reference compound]	7.2	963		50		
C[C@]1(O)CC[C@H](NS(=O)(=O)c2ccc(-c3ncc(F)cc3F)cc2)CC1 [HMC-N-02-A, 4-(3,5-Difluoropyridin-2-yl)-N-((1r,4r)-4-hydroxy-4-methylcyclohexyl)benzenesulfonamide]	6.3		55	43	150	290
C[C@]1(O)CC[C@@H](NS(=O)(=O)c2ccc(-c3ccc(F)cc3F)cc2)CC1 [ABD899, reference compound]	10.8	2133		50		
C[C@]1(O)CC[C@@H](NS(=O)(=O)c2ccc(-c3ncc(F)cc3F)cc2)CC1 [HMC-N-02-B, 4-(3,5-Difluoropyridin-2-yl)-N-((1s,4s)-4-hydroxy-4-methylcyclohexyl)benzenesulfonamide]	6	1931	107	66		20
C[C@]1(O)CC[C@H](NS(=O)(=O)c2ccc(-c3ccc(F)cc3C(F)(F)F)cc2)CC1 [HMC-C-02-A, 4′-Fluoro-N-((1r,4r)-4-hydroxy-4-methylcyclohexyl)-2′-(trifluoromethyl)biphenyl-4-sulfonamide]	3.2	546	17.8	39	1	970
C[C@]1(O)CC[C@@H](NS(=O)(=O)c2ccc(-c3ccc(F)cc3C(F)(F)F)cc2)CC1 [HMC-C-02-B, 4′-Fluoro-N-((1s,4s)-4-hydroxy-4-methylcyclohexyl)-2′-(trifluoromethyl)-[1,1′-biphenyl]-4-sulfonamide]						290
C[C@]1(O)CC[C@H](NS(=O)(=O)c2ccc(-c3ccc(Cl)cc3C#N)cc2)CC1 [HMC-C-01-A, 4′-Chloro-2′-cyano-N-((1r,4r)-4-hydroxy-4-methylcyclohexyl)biphenyl-4-sulfonamide]	6.2	900	66.7	89	40	180
C[C@]1(O)CC[C@@H](NS(=O)(=O)c2ccc(-c3ccc(Cl)cc3C#N)cc2)CC1 [HMC-C-01-B, 4′-Chloro-2′-cyano-N-((1s,4s)-4-hydroxy-4-methylcyclohexyl)-[1,1′-biphenyl]-4-sulfonamide]	5.7	1539	85.3	67		60
C[C@]1(O)CC[C@@H](NS(=O)(=O)c2ccc(-c3ncc(Cl)cc3Cl)cc2)CC1 [HMC-N-03-B, 4-(3,5-Dichloropyridin-2-yl)-N-((1s,4s)-4-hydroxy-4-methylcyclohexyl)benzenesulfonamide]	7.4		193	84		20
C[C@]1(O)CC[C@H](NS(=O)(=O)c2ccc(-c3ccc(F)cc3F)c(F)c2)CC1 [HMC-C-04-A, 2,2′,4′-Trifluoro-N-((1r,4r)-4-hydroxy-4-methylcyclohexyl)-[1,1′-biphenyl]-4-sulfonamide]						130
O=S(=O)(N[C@H]1CC[C@H](O)CC1)c1ccc(-c2ncc(Cl)cc2Cl)cc1 [ABD836, reference compound]	5.3	2142	98.8	55		
C[C@]1(O)CC[C@@H](NS(=O)(=O)c2ccc(-c3c(F)cc(F)cc3F)cc2)CC1 [HMC-C-03-B, 2′,4′,6′-Trifluoro-N-((1s,4s)-4-hydroxy-4-methylcyclohexyl)-[1,1′-biphenyl]-4-sulfonamide]	8.3		157	116		20
C[C@]1(O)CC[C@H](NS(=O)(=O)c2ccc(-c3ncc(Cl)cc3Cl)cc2)CC1 [HMC-N-03-A, 4-(3,5-Dichloropyridin-2-yl)-N-((1r,4r)-4-hydroxy-4-methylcyclohexyl)benzenesulfonamide]	3.1		16	8	50	
Cc1cc(S(=O)(=O)N[C@H]2CC[C@H](O)CC2)ccc1-c1ccc(F)cc1F [ABD735]	3.8	1081		83		
